One may read the IC50 as the concentration that inhibits the measured activity by half.

Each structure is given as a SMILES string. Several values for one entry are separate records, joined by “and”; a condition that tells them apart may be missing. Equal entries are not always repeated.

Here are results for eight compounds from paper PMC12366525, “Characterization of allosteric modulators that disrupt androgen receptor co-activator protein-protein interactions to alter transactivation–Drug leads for metastatic castration resistant prostate cancer” (SLAS discovery : advancing life sciences R & D, 2023).

One test has as its target T1, AR-TIF2 PPI (Homo sapiens, UniProt P10275).
T1 construct: expressed in transfected cells; host or cells: U-2 OS osteosarcoma cells, co-infected with recombinant adenoviruses
T1 sequence (P10275 663-920 limits assumed): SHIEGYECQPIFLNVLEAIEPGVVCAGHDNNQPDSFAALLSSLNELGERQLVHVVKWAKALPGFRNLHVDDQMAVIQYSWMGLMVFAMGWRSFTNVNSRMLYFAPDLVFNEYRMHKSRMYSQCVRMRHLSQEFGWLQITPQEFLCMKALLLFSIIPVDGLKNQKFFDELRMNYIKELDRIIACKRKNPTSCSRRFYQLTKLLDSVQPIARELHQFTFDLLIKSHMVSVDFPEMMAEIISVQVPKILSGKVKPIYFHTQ
Put plainly: AR-TIF2 PPI biosensor (PPIB) HCS assay, inhibition of DHT-induced AR-TIF2 PPI formation. The test is classed as cell-based. The note with it: for IC50: U-2 OS cells, compounds 3 h prior to 25 nM DHT for 90 min. The procedure:
Daughter plates containing 2 μL of the serially diluted compounds in DMSO were prepared and replicated from 384-well serial dilution master plates using a Janus MDT platform outfitted with a 384-well transfer head. Aluminum adhesive plate seals were applied, and plates were stored at −20 °C. For bioassay testing, daughter plates were withdrawn from −20 °C storage, thawed to ambient temperature, and centrifuged for 1 min at 100 × g, and plate seals were removed before 38 μL of serum-free media (SFM) was transferred into wells using a Matrix pipettor (ThermoFisher, Waltham, MA), to generate an intermediate stock concentration of validation compounds ranging from 0.977 to 500 μM (5.0% DMSO). Diluted compounds were mixed by repeated aspiration and dispensation using a 384-well P30 dispensing head on the Janus MDT platform and then, 5 μL of diluted compounds was transferred to assay plate wells to provide a final concentration range from 0.0977 to 50 μM (0.5% DMSO).
The AR-TIF2 PPIB HCS assay was performed in U-2 OS osteosarcoma cells as described previously. Briefly, U-2 OS cells were coinfected with recombinant adenovirus biosensor expression constructs and seeded at 2500 cells per well in 384-well collagen-coated microplates (Greiner BioOne #781956) and plates were incubated overnight at 37°C in 5% CO2 and 95% humidity. […] After the appropriate time, assay plates were fixed by transfer of 50 μL of pre-warmed (37°C) 7.4% formaldehyde and 2 μg/mL Hoechst 33342 in PBS and incubation at room temperature for 30 min. Liquid was aspirated, plates were washed twice with 85 μL PBS, leaving the final wash in the plate. Plates were sealed with adhesive aluminum plate seals, and fluorescent images of three fields of view were acquired in the DAPI (Hoechst stained nuclei), FITC (TIF2-GFP) and Texas Red (AR-RFP) channels on an ImageXpress Micro (IXM) automated HCS platform (Molecular Devices LLC, Sunnyvale, CA) using a 10X Plan Fluor 0.3 NA objective. Images were analyzed using the Translocation Enhanced (TE) image analysis module of the MetaXpress software as described previously.
In 384-well assays, DMSO minimum (n = 32) and maximum (n = 32) plate control wells were utilized to calculate signal-to-background ratios (S:B) and Z’-factor coefficient assay performance quality control statistics, and to normalize the signals of compound treated wells and to represent 0% and 100% respectively. For the 96-well AR-LBD H^3-DHT radioligand binding assay, eight minimum and maximum plate control wells were utilized to normalize the data. For the PC cell line growth inhibition assays we used the DMSO control data from the T0 and T72 assay plates to assess the dynamic range of the T0 to T72 cell growth, and to calculate S:B ratios and Z’-factor coefficient statistics for the assay signal window (T0 to T72). To normalize the 72 h compound exposure PC growth inhibition data, the signals from the compound treated wells were processed and expressed as% of the T72 DMSO plate controls. IC50 and GI50 values for each of the bioassays were calculated using Graph-Pad Prism 9 software to plot and fit data to curves using the Sigmoidal dose response variable slope equation Y = Bottom + [Top-Bottom]/ [1 + 10^^(LogEC50-X)*HillSlope].

In a further test the target is T2, full length AR (Homo sapiens, UniProt P10275, T878A).
T2 construct: DHT-induced full length AR directed TA; endogenous in cells; host or cells: C4–2 castration resistant prostate cancer cells
T2 sequence (P10275 1-920 T878A): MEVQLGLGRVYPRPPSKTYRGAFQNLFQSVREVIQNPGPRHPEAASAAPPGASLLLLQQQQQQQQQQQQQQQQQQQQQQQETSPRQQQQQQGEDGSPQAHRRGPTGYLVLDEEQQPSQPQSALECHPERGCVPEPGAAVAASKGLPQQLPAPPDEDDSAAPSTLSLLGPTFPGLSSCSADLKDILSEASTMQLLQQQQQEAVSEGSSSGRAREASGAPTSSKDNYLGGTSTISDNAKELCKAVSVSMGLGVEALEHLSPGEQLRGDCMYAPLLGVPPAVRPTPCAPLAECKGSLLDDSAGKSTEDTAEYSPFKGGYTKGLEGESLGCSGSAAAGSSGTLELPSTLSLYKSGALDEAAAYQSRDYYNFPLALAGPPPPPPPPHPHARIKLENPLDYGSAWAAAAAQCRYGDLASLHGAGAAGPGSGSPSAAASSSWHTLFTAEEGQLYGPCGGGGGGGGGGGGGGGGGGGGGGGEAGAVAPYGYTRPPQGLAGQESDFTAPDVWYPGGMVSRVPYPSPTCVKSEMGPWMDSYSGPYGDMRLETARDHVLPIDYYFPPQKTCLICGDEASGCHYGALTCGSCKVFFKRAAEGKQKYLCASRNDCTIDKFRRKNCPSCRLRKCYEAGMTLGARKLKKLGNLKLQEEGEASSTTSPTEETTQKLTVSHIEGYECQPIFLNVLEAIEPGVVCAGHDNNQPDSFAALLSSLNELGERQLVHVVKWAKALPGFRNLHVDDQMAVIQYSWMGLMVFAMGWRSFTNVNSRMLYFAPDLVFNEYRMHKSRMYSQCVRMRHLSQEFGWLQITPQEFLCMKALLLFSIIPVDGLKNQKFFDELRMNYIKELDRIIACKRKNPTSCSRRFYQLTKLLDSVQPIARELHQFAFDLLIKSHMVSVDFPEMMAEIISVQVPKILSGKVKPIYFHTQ
Put plainly: PSA-6.1 luciferase reporter assay in C4–2 CRPC cells. It is filed as cell-based. The note with it: C4–2 cells; 50 nM DHT; 24 h; read-out: C4–2 PSA6.1-Luc Reporter IC50. The procedure:
The PSA-6.1-Luc luciferase reporter plasmid was provided by Dr. Zhou Wang in the Urology department of the University of Pittsburgh Cancer Institute. The PSA-6.1-Luc reporter is controlled by a fragment of the PSA promoter that contains at least three AREs. The PSA-6.1-Luc plasmid (12 ng/well) was combined with Fugene 6 at a ratio 6:1 in SFM and incubated for 25 min at room temperature before being combined with C4–2 cells suspended in RPMI 1640 media containing 1% penicillin-streptomycin, 1% L-glutamine, and 10% FBS. Transfected cells were then seeded into white opaque 384-well assay plates (Greiner Bio-one, #781080) at 6000 cells per well in a volume of 30 μL and incubated in 5% CO2, 37 °C, and 95% humidity for 24 h.
Background: Reporter assays use an easily measured gene product as a stand-in for the process of interest.

As to `Cc1ccccc1-c1cc(O)c2c(c1)CN(c1nc(C(N)=O)cs1)CCO2` [S1–1], the IC50 is 5.64 µM against AR-TIF2 PPI and 17.1 µM at full length AR.

With `Cc1ccccc1-c1cc(O)c2c(c1)CN(c1nccs1)CCO2` [S1–3], the IC50 on AR-TIF2 PPI was determined as 30.5 µM; on full length AR, 29.7 µM.

Take `Cc1nsc(NC(=O)N2CCC(Sc3ccccc3C)CC2)n1` [S2–6]: the IC50 was 1.06 µM on AR-TIF2 PPI; 2 µM and 2.3 µM on full length AR.

On to `Cc1c(-c2ccccc2F)[nH]c2ccc(CNC(=O)CCc3cn[nH]c3)cc12` [S3–11], for which the IC50 at AR-TIF2 PPI was 3.25 µM and 3.2 µM; at full length AR, 9 µM.

For `Cc1c(-c2ccccc2F)[nH]c2ccc(CNC(=O)CCc3cnccn3)cc12` [S3–12], the IC50 against AR-TIF2 PPI turned out to be 4.24 µM; on full length AR it was 7.7 µM.

In the case of `CC(=O)NCCC(=O)NCc1ccc2[nH]c(-c3ccccc3F)c(C)c2c1` [S3–13], the IC50 on AR-TIF2 PPI was 7.16 µM; at full length AR, 58.5 µM.

As for `Cc1c(-c2ccccc2F)[nH]c2ccc(CNC(=O)c3ccc(CO)o3)cc12` [S3–14], the IC50 stood at 2.13 µM against AR-TIF2 PPI and 10.8 µM on full length AR.

Take `Cc1c(-c2ccc(F)cc2)[nH]c2ccc(CNC(=O)c3ccc(CO)o3)cc12` [S3–15]: the “Reduction in relative potency versus parent hit in AR-TIF2 PPIB assay formats” value at AR-TIF2 PPI (S1 analogs vs S1–1, S3–15 vs S3–14) is recorded as ~ 2 fold. Also, the figures for the IC50 at AR-TIF2 PPI and on full length AR were 5.11 µM and 7 µM, respectively.
